Laboratory results as given in patent publication US20030143172A1, “Hair treatment agent” (priority 2001, published 2003).

Columns and labels:
[1] = Hydroxy radical-scavenging ability (ESR-spin trap method); type: biochemical
Protocol: Using “ESR-spin trap method”, the radical scavenging in percentage of each of ascorbyl 2-phosphate sodium salt (APS), ascorbyl 2-phosphate magnesium salt (APM) and ascorbyl 2-glucoside (AG) was measured. The radicals were chemically generated.
10 μl of 1M HEPES buffer solution (pH: 7.2), 10 μl of 1 mM diethylenetriaminepentaacetic acid, each of 20 μl of APS, APM or AG solution, 100 μl of purified water, 40 μl of 40 mM 2,2′-azobis(2-methylpropionamidine)dihydrochloride and 20 μl of 0.5 M 5,5-dimethyl-1-pyrroline-N-oxide were added and mixed. The obtained solutions were sequentially enclosed into flat cells for ESR and the cells were placed in an ESR apparatus (“JES-RE1X”, manufactured by JEOL Ltd.) and subjected to the measurement of hydroxy radical-scavenging ability. The hydroxy radical-scavenging ability is shown by S/M value (area value of spectrum/area value of manganese marker) and the scavenging ratio is shown by percentage (%).

[2] = Dechlorinating ability (iodometric titration of free chlorine in chlorine water); conditions: initial free chlorine 0.43
Protocol: To chlorine water having a previously determined free chlorine concentration, APS or AG was added and the amount of free chlorine decreased was measured. The free chlorine amount was measured by iodometric titiration.
To each of three Erlenmeyer flasks with a stopper, 10 ml of chlorine water having a known free chlorine concentration was added and thereto, APS or AG in an equimolar amount, 1.5 times molar amount or 2 times molar amount to the free chlorine in the solution was added and stirred. After 5 minutes, 10 minutes, 15 minutes and 20 minutes, the amount of free chlorine was titrated.
In the titration, 2 ml of each reaction solution was charged into another Erlenmeyer flask with a stopper, 50 ml of distilled water was added thereto, 1.0 g of potassium iodide and 1 ml of a 0.2% starch solution were further added and after stirring, a 0.1 N sodium thiosulfate standard solution was added dropwise. The point where purple color was faded out was designated as a final point. From the amount of sodium thiosulfate added dropwise at this time, the amount of free chlorine was calculated.

[3] = Ability of preventing hair damage caused by chlorine (color difference ΔE of hair); parameters: species or system human; conditions: aqueous 10 mM solution, chlorine water, one hour
Protocol: 120 ml of an aqueous 10 mM APS solution, 120 ml of an aqueous 10 mM AG solution and 120 ml of purified water each was poured into two bottles with a screw opening. In the aqueous 10 mM APS solution, the aqueous 10 mM AG solution or the purified water, hair of an adult and hair of a child, which were previously subjected to the measurement of color (L*a*b color specification) by a spectrocolorimeter (Macbeth Gretag APM50), each was immersed in an amount of 70 to 80 mg while stirring. To each solution in which the hair was immersed, 15 ml of a commercially available chlorine water (concentration of free chlorine: about 0.43%) was added. After stirring for one hour, the hair was filtered, washed with water and air-dried. The resulting hairs were measured on the color (L*a*b* color specification) and from the values obtained, the color difference ΔE value was calculated.

[4] = Ability of preventing decolorization of melanin pigment caused by chlorine (absorbance at 400 nm); parameters: species or system sepia officinailis; conditions: for 3 Hours After Addition abs / 6 Hours After Addition abs / Before Addition abs: 400 nm; for 3 Hours After Addition abs / Residual Ratio, 3H: 3 hours after addition of chlorine water; for 6 Hours After Addition abs / Residual Ratio, 6H: 6 hours after addition of chlorine water; for Before Addition abs: before addition of chlorine water (baseline)
Protocol: A melanin pigment (sepia officinailis) was added to a 2 N aqueous sodium hydroxide solution and dissolved under heating at 80° C. for 2 hours to adjust the melanin pigment content in the solution to 50 ppm. This melanin pigment solution was divided into 5 vessels and 5 kinds in total of sample solutions were prepared, namely, solutions adjusted to an APS concentration of 10 mM and 50 mM, solutions adjusted to an AG concentration of 10 mM and 50 mM, and a control having added thereto neither APS nor AG. Then, 4 ml of each solution was sampled in a sampling bottle and 0.5 ml of commercially available chlorine water (free chlorine concentration: about 0.43%) was added to each sampling bottle. As a blank, a melanin pigment solution was used. The prevention of melanin decolorization was evaluated by measuring the absorbance (abs) at 400 nm using a spectrophotometer when 3 hours (3 H) and 6 hours (6H) were passed after the addition of chlorine water.

[5] = Ability of preventing hair damage caused by sunlight (weather meter irradiation, ΔE of hair); conditions: pH 7.2, irradiation 24 hours
Protocol: An APS solution, an AG solution, which were each adjusted to a pH of 7.2 and a concentration of 10 mM or 100 mM, and purified water (control) each was charged into a polyethylene bag and in respective bags, from 70 to 80 g of hair previously measured on the color (L*a*b* color specification) by a spectrocolorimeter (Macbeth Gretag APM50) was enclosed. After the immersion for about 2 hours, light was irradiated thereon using a weather meter (high energy xenon weather meter, manufactured by Suga Shikenki K. K.). The irradiation time was 24 hours and the integrated light intensity was about 10,000 kj/m^2. The hair after the irradiation was washed with purified water, air-dried and then subjected to the measurement of color (L*a*b* color specification) and from the values obtained, the color difference ΔE value was calculated.

[6] = molar ratio additive:free chlorine 1.0:1.0
[7] = molar ratio additive:free chlorine 1.5:1.0
[8] = molar ratio additive:free chlorine 2.0:1.0

Structure (SMILES) | Radical scavenging, % (S/M relative to 0 mM = 100.0) ([1]; concentration 0.01 mM) [%] | S/M (area value of spectrum/area value of manganese marker) ([1]; concentration 0.01 mM) | Radical scavenging, % (S/M relative to 0 mM = 100.0) ([1]; concentration 0.03 mM) [%] | S/M (area value of spectrum/area value of manganese marker) ([1]; concentration 0.03 mM) | Radical scavenging, % (S/M relative to 0 mM = 100.0) ([1]; concentration 0.1 mM) [%] | S/M (area value of spectrum/area value of manganese marker) ([1]; concentration 0.1 mM) | Radical scavenging, % (S/M relative to 0 mM = 100.0) ([1]; concentration 0.3 mM) [%] | S/M (area value of spectrum/area value of manganese marker) ([1]; concentration 0.3 mM) | Radical scavenging, % (S/M relative to 0 mM = 100.0) ([1]; concentration 1 mM) [%] | S/M (area value of spectrum/area value of manganese marker) ([1]; concentration 1 mM) | Free chlorine After 5 Minutes [2, 6] [%] | Free chlorine After 10 Minutes [2, 6] [%] | Free chlorine After 15 Minutes [2, 6] [%] | Free chlorine After 20 Minutes [2, 6] [%] | Free chlorine After 5 Minutes [2, 7] [%] | Free chlorine After 10 Minutes [2, 7] [%] | Free chlorine After 15 Minutes [2, 7] [%] | Free chlorine After 20 Minutes [2, 7] [%] | Free chlorine After 5 Minutes [2, 8] [%] | Free chlorine After 10 Minutes [2, 8] [%] | also measured
O=C1O[C@H]([C@@H](O)CO)C([O-])=C1OP(=O)([O-])[O-].O=C1O[C@H]([C@@H](O)CO)C([O-])=C1OP(=O)([O-])[O-].[Mg+2].[Mg+2].[Mg+2] [APM, ascorbyl 2-phosphate magnesium salt] | 89.2 | 0.58 | 92.3 | 0.60 | 81.5 | 0.53 | 64.6 | 0.42 | 18.5 | 0.12 | – | – | – | – | – | – | – | – | – | – | –
O=C1O[C@H]([C@@H](O)CO)C(O)=C1O[C@H]1O[C@H](CO)[C@@H](O)[C@H](O)[C@H]1O [AG, ascorbyl 2-glucoside] | 98.5 | 0.64 | 89.2 | 0.58 | 98.5 | 0.64 | 90.8 | 0.59 | 61.5 | 0.40 | 0.033 | 0.02 | 0.01 | 0 | 0.008 | 0 | 0 | 0 | 0 | 0 | Free chlorine After 15 Minutes [2, 8]: 0%; Free chlorine After 20 Minutes [2, 8]: 0%; ΔE Value of Hair Treated With Chlorine ([3]; hair of child): 1.1; 3 Hours After Addition abs ([4]; additive 10 mM): 0.458 abs; 6 Hours After Addition abs ([4]; additive 10 mM): 0.447 abs; Before Addition abs ([4]; additive 10 mM): 0.575 abs; Residual Ratio, 3H ([4]; additive 10 mM): 0.797; Residual Ratio, 6H ([4]; additive 10 mM): 0.777; 3 Hours After Addition abs ([4]; additive 50 mM): 0.553 abs; 6 Hours After Addition abs ([4]; additive 50 mM): 0.540 abs; Before Addition abs ([4]; additive 50 mM): 0.569 abs; Residual Ratio, 3H ([4]; additive 50 mM): 0.972; Residual Ratio, 6H ([4]; additive 50 mM): 0.949; ΔE Value of Weather Meter Treated-hair ([5]; concentration 10 mM): 10.72; ΔE Value of Weather Meter Treated-hair ([5]; concentration 100 mM): 6.01
O=C1O[C@H]([C@@H](O)CO)C([O-])=C1OP(=O)([O-])[O-].[Na+].[Na+].[Na+] [APS, ascorbyl 2-phosphate sodium salt] | 103.1 | 0.67 | 104.6 | 0.68 | 78.5 | 0.51 | 53.8 | 0.35 | 16.9 | 0.11 | 0.02 | 0.012 | 0.008 | 0 | 0.005 | 0 | 0 | 0 | 0 | 0 | Free chlorine After 15 Minutes [2, 8]: 0%; Free chlorine After 20 Minutes [2, 8]: 0%; ΔE Value of Hair Treated With Chlorine ([3]; hair of Adult person): 0.4; ΔE Value of Hair Treated With Chlorine ([3]; hair of child): 0.5; 3 Hours After Addition abs ([4]; additive 10 mM): 0.449 abs; 6 Hours After Addition abs ([4]; additive 10 mM): 0.453 abs; Before Addition abs ([4]; additive 10 mM): 0.577 abs; Residual Ratio, 3H ([4]; additive 10 mM): 0.773; Residual Ratio, 6H ([4]; additive 10 mM): 0.785; 3 Hours After Addition abs ([4]; additive 50 mM): 0.545 abs; 6 Hours After Addition abs ([4]; additive 50 mM): 0.505 abs; Before Addition abs ([4]; additive 50 mM): 0.592 abs; Residual Ratio, 3H ([4]; additive 50 mM): 0.921; Residual Ratio, 6H ([4]; additive 50 mM): 0.853; ΔE Value of Weather Meter Treated-hair ([5]; concentration 10 mM): 14.36; ΔE Value of Weather Meter Treated-hair ([5]; concentration 100 mM): 4.54
